What was measured:
[1] = Half life in Sprague-Dawley rat at 1 mg/kg, iv measured up to 24 hrs by LCMS analysis; type: ADME, organism-based; conditions: in vivo
[2] = Metabolic stability in mouse liver microsomes assessed as intrinsic clearance at 1 uM presence of NADPH measured up to 60 mins by LC-MS/MS analysis; type: ADME, Microsome; conditions: read-out: CLH
[3] = Oral bioavailability in Sprague-Dawley rat at 5 mg/kg administered via gavage measured up to 24 hrs by LCMS analysis; type: ADME, organism-based; conditions: in vivo
[4] = Acute toxicity in fasted male mouse assessed as increase in body weight at 2 g/Kg, IG administered as single dose measured every day for 14 days; conditions: in vivo, po, 2000 mg/kg, 336 h, time 14 day
[5] = Acute toxicity in fasted female mouse assessed as pathological changes in spleen at 2 g/Kg, IG administered as single dose measured after 14 days by HE staining based assay; type: tissue-based; conditions: in vivo, po, 2000 mg/kg, 336 h, time 14 day
[6] = Metabolic stability in rat liver microsomes assessed as half life at 1 uM presence of NADPH measured up to 60 mins by LC-MS/MS analysis; type: ADME, Microsome
[7] = Acute toxicity in fasted female mouse assessed as abnormal behavior at 2 g/Kg, IG administered as single dose measured every day for 14 days; conditions: in vivo, po, 2000 mg/kg, 336 h, time 14 day
[8] = Cmax in Sprague-Dawley rat at 5 mg/kg, po administered via gavage measured up to 24 hrs by LCMS analysis; type: ADME, organism-based; parameters: route oral, dose 5 mg/kg, time <=24; conditions: in vivo
Cytochrome P450 2C19 = Cytochrome P450 2C19 (Homo sapiens, UniProt P33261); assay: Inhibition of CYP2C19 in human liver microsomes using S-mephenytoin as substrate incubated for 15 to 45 mins in presence of NADPH; type: ADME
Cytochrome P450 2C19, sequence (P33261 whole entry): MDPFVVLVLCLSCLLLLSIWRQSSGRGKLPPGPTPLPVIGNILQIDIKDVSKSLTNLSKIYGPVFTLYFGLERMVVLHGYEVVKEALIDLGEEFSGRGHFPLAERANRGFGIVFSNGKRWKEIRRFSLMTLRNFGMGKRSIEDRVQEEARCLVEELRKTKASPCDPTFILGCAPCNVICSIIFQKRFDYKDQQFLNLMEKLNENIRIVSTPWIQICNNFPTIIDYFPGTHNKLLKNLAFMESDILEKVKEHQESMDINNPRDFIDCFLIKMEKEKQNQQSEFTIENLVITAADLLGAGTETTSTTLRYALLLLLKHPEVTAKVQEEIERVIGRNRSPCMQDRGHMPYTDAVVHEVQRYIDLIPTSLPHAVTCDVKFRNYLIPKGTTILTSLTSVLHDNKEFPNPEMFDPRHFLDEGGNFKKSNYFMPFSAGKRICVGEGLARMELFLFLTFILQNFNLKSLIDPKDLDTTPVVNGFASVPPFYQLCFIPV

[9] = Acute toxicity in fasted female mouse assessed as death at 2 g/Kg, IG administered as single dose measured every day for 14 days; conditions: in vivo, po, 2000 mg/kg, 336 h, time 14 day
[10] = Acute toxicity in fasted male mouse assessed as abnormal behavior at 2 g/Kg, IG administered as single dose measured every day for 14 days; conditions: in vivo, po, 2000 mg/kg, 336 h, time 14 day
[11] = Acute toxicity in fasted female mouse assessed as pathological changes in kidney at 2 g/Kg, IG administered as single dose measured after 14 days by HE staining based assay; type: tissue-based; conditions: in vivo, po, 2000 mg/kg, 336 h, time 14 day
[12] = Acute toxicity in fasted female mouse assessed as increase in body weight at 2 g/Kg, IG administered as single dose measured every day for 14 days; conditions: in vivo, po, 2000 mg/kg, 336 h, time 14 day
Cytochrome P450 2C9 = Cytochrome P450 2C9 (Homo sapiens, UniProt P11712); assay: Inhibition of CYP2C9 in human liver microsomes using tolbutamide as substrate incubated for 15 to 45 mins in presence of NADPH
Cytochrome P450 2C9, sequence (P11712 whole entry): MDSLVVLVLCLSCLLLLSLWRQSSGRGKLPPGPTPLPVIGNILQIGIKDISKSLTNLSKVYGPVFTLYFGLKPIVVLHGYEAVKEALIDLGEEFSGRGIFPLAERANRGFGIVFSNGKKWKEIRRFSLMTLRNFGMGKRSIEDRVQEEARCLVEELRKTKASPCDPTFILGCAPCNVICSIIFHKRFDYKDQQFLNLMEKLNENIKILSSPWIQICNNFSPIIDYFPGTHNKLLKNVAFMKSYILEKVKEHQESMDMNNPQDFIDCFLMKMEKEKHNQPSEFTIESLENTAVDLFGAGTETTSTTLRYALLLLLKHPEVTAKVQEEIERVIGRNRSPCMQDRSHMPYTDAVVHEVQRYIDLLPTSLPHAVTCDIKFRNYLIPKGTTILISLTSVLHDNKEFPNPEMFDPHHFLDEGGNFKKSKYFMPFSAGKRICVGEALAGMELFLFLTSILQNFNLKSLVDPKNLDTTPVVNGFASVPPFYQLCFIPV

[13] = Acute toxicity in fasted female mouse assessed as pathological changes in lung at 2 g/Kg, IG administered as single dose measured after 14 days by HE staining based assay; type: tissue-based; conditions: in vivo, po, 2000 mg/kg, 336 h, time 14 day
[14] = Acute toxicity in fasted male mouse assessed as pathological changes in heart at 2 g/Kg, IG administered as single dose measured after 14 days by HE staining based assay; type: tissue-based; conditions: in vivo, po, 2000 mg/kg, 336 h, time 14 day
[15] = Acute toxicity in fasted male mouse assessed as pathological changes in kidney at 2 g/Kg, IG administered as single dose measured after 14 days by HE staining based assay; type: tissue-based; conditions: in vivo, po, 2000 mg/kg, 336 h, time 14 day
[16] = Inhibition of CYP3A4T in human liver microsomes using testosterone as substrate incubated for 15 to 45 mins in presence of NADPH; type: ADME
[17] = Metabolic stability in human liver microsomes assessed as half life at 1 uM presence of NADPH measured up to 60 mins by LC-MS/MS analysis; type: ADME, Microsome
[18] = Acute toxicity in fasted male mouse assessed as pathological changes in lung at 2 g/Kg, IG administered as single dose measured after 14 days by HE staining based assay; type: tissue-based; conditions: in vivo, po, 2000 mg/kg, 336 h, time 14 day
[19] = Metabolic stability in rat liver microsomes assessed as intrinsic clearance at 1 uM presence of NADPH measured up to 60 mins by LC-MS/MS analysis; type: ADME, Microsome; conditions: read-out: CLH
[20] = Metabolic stability in human liver microsomes assessed as intrinsic clearance at 1 uM presence of NADPH measured up to 60 mins by LC-MS/MS analysis; type: ADME, Microsome; conditions: read-out: CLH
[21] = Acute toxicity in fasted male mouse assessed as death at 2 g/Kg, IG administered as single dose measured every day for 14 days; conditions: in vivo, po, 2000 mg/kg, 336 h, time 14 day
[22] = Metabolic stability in mouse liver microsomes assessed as half life at 1 uM presence of NADPH measured up to 60 mins by LC-MS/MS analysis; type: ADME, Microsome
[23] = Acute toxicity in fasted female mouse assessed as pathological changes in heart at 2 g/Kg, IG administered as single dose measured after 14 days by HE staining based assay; type: tissue-based; conditions: in vivo, po, 2000 mg/kg, 336 h, time 14 day
Cytochrome P450 1A2 = target: T1, Cytochrome P450 1A2 (Homo sapiens, UniProt P05177); assay: Inhibition of CYP1A2 in human liver microsomes using phenacetin as substrate incubated for 15 to 45 mins in presence of NADPH; type: ADME
T1 sequence (P05177 whole entry): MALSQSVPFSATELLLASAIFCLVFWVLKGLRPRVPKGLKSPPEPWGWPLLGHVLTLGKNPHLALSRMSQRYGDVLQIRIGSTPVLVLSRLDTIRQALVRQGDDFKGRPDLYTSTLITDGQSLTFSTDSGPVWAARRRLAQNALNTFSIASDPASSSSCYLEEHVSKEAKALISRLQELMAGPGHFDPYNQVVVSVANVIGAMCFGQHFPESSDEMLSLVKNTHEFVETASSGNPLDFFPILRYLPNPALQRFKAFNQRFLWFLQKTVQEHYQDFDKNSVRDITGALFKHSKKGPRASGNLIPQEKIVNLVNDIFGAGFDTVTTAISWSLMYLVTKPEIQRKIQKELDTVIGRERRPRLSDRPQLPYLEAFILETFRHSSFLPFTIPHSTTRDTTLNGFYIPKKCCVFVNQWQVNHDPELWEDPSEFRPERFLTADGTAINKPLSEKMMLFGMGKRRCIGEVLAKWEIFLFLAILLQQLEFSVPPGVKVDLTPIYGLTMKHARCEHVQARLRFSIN

[24] = Acute toxicity in fasted female mouse assessed as pathological changes in liver at 2 g/Kg, IG administered as single dose measured after 14 days by HE staining based assay; type: tissue-based; conditions: in vivo, po, 2000 mg/kg, 336 h, time 14 day
[25] = Acute toxicity in fasted male mouse assessed as pathological changes in spleen at 2 g/Kg, IG administered as single dose measured after 14 days by HE staining based assay; type: tissue-based; conditions: in vivo, po, 2000 mg/kg, 336 h, time 14 day
[26] = Acute toxicity in fasted male mouse assessed as pathological changes in brain at 2 g/Kg, IG administered as single dose measured after 14 days by HE staining based assay; type: tissue-based; conditions: in vivo, po, 2000 mg/kg, 336 h, time 14 day
[27] = Acute toxicity in fasted male mouse assessed as pathological changes in liver at 2 g/Kg, IG administered as single dose measured after 14 days by HE staining based assay; type: tissue-based; conditions: in vivo, po, 2000 mg/kg, 336 h, time 14 day
[28] = Inhibition of CYP3A4M in human liver microsomes using midazolam as substrate incubated for 15 to 45 mins in presence of NADPH; type: ADME
Cytochrome P450 2D6 = Cytochrome P450 2D6 (Homo sapiens, UniProt P10635); assay: Inhibition of CYP2D6 in human liver microsomes using dextromethorphan as substrate incubated for 15 to 45 mins in presence of NADPH; type: ADME
Cytochrome P450 2D6, sequence (P10635 whole entry): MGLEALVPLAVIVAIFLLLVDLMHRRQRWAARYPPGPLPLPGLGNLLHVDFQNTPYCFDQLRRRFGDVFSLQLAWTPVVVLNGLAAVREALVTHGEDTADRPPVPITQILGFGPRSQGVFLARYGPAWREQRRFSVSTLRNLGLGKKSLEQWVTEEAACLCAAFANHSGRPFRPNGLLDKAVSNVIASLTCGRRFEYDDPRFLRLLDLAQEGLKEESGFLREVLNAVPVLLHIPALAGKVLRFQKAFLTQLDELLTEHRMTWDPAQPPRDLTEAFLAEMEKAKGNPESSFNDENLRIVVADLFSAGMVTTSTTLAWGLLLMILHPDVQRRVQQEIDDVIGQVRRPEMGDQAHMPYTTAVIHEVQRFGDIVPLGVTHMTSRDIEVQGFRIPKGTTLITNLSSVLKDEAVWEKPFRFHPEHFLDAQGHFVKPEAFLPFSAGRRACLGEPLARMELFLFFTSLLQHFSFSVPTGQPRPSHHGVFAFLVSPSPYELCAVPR

[29] = Tmax in Sprague-Dawley rat at 5 mg/kg, po administered via gavage measured up to 24 hrs by LCMS analysis; type: ADME, organism-based; conditions: in vivo
[30] = Acute toxicity in fasted female mouse assessed as pathological changes in brain at 2 g/Kg, IG administered as single dose measured after 14 days by HE staining based assay; type: tissue-based; conditions: in vivo, po, 2000 mg/kg, 336 h, time 14 day

Br.Cc1cnc(Nc2ccc(C#N)cc2)nc1Nc1c(F)cc(-c2ccncc2)cc1F
half-life [1]: 48.6 min
microsomal CLint at 1 µM [2]: 24.9 µL/min/mg
bioavailability [3]: 0.9%
Activity [4]: Toxic
Activity [5]: Non-Toxic
half-life at 1 µM [6]: 44 min
Activity [7]: Non-Toxic
Cmax [8]: 2.14 ng/mL
IC50 (Cytochrome P450 2C19): 2.2 µM
Activity [9]: Non-Toxic
Activity [10]: Non-Toxic
Activity [11]: Non-Toxic
Activity [12]: Toxic
IC50 (Cytochrome P450 2C9): 4.5 µM
Activity [13]: Non-Toxic
Activity [14]: Non-Toxic
Activity [15]: Non-Toxic
IC50 [16]: 19 µM
half-life at 1 µM [17]: 95 min
Activity [18]: Non-Toxic
microsomal CLint at 1 µM [19]: 31.8 µL/min/mg
microsomal CLint at 1 µM [20]: 14.6 µL/min/mg
Activity [21]: Non-Toxic
half-life at 1 µM [22]: 56 min
Activity [23]: Non-Toxic
IC50 (Cytochrome P450 1A2): 4.1 µM
Activity [24]: Non-Toxic
Activity [25]: Non-Toxic
Activity [26]: Non-Toxic
Activity [27]: Non-Toxic
IC50 [28]: 29 µM
IC50 (Cytochrome P450 2D6): 7.6 µM
Tmax [29]: 15 min
Activity [30]: Non-Toxic

— ChEMBL document CHEMBL5042530, “Discovery of Novel Pyridine-Dimethyl-Phenyl-DAPY Hybrids by Molecular Fusing of Methyl-Pyrimidine-DAPYs and Difluoro-Pyridinyl-DAPYs: Improving the Druggability toward High Inhibitory Activity, Solubility, Safety, and PK” (J Med Chem, 2022)
